{"source": "patent US20230129137A1", "about": "“USE OF TT-10-LOADED NANOPARTICLES FOR CARDIAC REPAIR” (THE UAB RESEARCH FOUNDATION, priority 2021, published 2023)", "key": {"Yap": {"system": "Yap", "assay": "nuclear Yap in hiPSC-CMs (immunofluorescence)", "type": "cell-based, human", "conditions": "10 μM TT-10", "method": "(§1) FIGS. 2A-2B show TT-10 enhanced survival and nuclear Yap levels in cultured hiPSC-CMs. (FIG. 2A) Apoptosis was evaluated via TUNEL staining and quantified as the percentage of TUNEL-positive cells. (FIG. 2B) hiPSC-CMs were immunofluorescently costained for Yap, and the proportion of cells with Yap-positive nuclei is presented as a percentage. Scale bar: 20 μm. All experiments were repeated 5 times. *P<0.01, Student's t test.\n(§2) The effect of TT-10 (FIG. 1A) on cardiomyocyte cell cycle activity and proliferation was determined by culturing human induced pluripotent stem cell-derived cardiomyocytes (hiPSC-CMs) in varying concentrations of TT-10 (0, 2 μM, 10 μM, 20 μM or 100 μM) for 48 hours and then evaluating the presence of markers for cell proliferation (Ki67 expression, FIG. 1B), S phase (BrdU incorporation, FIG. 1C), and M phase (histone 3 phosphorylation [PH3], FIG. 1D) of the cell cycle and for cytokinesis (Aurora B, FIG. 1E). […] The effect of TT-10 on YAP pathway activity was also evaluated via Western blot (FIG. 7): total Yap levels in hiPSC-CMs treated with or without TT-10 were similar, but phosphorylated Yap (p-Yap) was less abundant in TT-10-treated cells.\nImmunofluorescence. […] After staining, analyses were conducted with a fluorescence microscope."}, "cardiomyocytes": {"system": "cardiomyocytes", "conditions": "cited from earlier work"}, "YAP signaling pathway": {"system": "YAP signaling pathway", "assay": "YAP and phosphorylated YAP abundance by Western blot in hiPSC-CMs", "type": "cell-based, human", "conditions": "10 μM TT-10, 48 hours, with vs without TT-10", "method": "as §2\nWestern blot. hiPSC-CMs were lysed with M-PER Mammalian Protein Extraction Reagent (Thermo Fisher Scientific) supplemented with Halt Protease and Phosphatase Inhibitor Cocktail (Thermo Fisher Scientific). Extracted protein was quantified by BCA protein assay kit (Thermo Fisher Scientific) and denatured by heating at 95° C. for 10 minutes. Equal quantity of protein were loaded and separated by 4%-15% precast SDS-PAGE gels (Bio-Rad), and then transferred onto a polyvinylidene difluoride membrane (Bio-Rad). […] Protein signals were imaged with a Bio-Rad ChemiDoc System and analyzed by ImageJ. […]"}, "hiPSC-CMs [1]": {"system": "hiPSC-CMs", "assay": "apoptosis of hiPSC-CMs by TUNEL staining", "type": "cell-based, human", "conditions": "10 μM TT-10", "method": "as §1, §2\nTUNEL. TUNEL staining was performed with an in situ cell death detection kit (Roche). […] Apoptosis was quantified as the proportion of cells that were TUNEL positive."}, "hiPSC-CMs [2]": {"system": "hiPSC-CMs", "assay": "cell cycle activity and proliferation markers in cultured hiPSC-CMs (immunofluorescence)", "type": "cell-based, human", "conditions": "TT-10 0, 2, 10, 20 or 100 μM, 48 hours", "method": "FIGS. 1A-1E show TT-10 increased cell cycle activity and proliferation in cultured human pluripotent stem sell derived cardiomyocytes (hiPSC-CMs). (FIG. 1A) TT-10 (C11H10FN3OS2; molecular weight, 283.34 Da) contains 4 C═C, 1 C═N, and 1 C═O double bond. Maximum UV/Vis absorbance is approximately 200 nm. (FIGS. 1B-1E) hiPSC-CMs were cultured under standard conditions (—) or treated with varying concentrations of TT-10 (2 μM, 10 μM, 20 μM, or 100 μM) for 48 hours and immunofluorescently stained for the human isoform of cardiac troponin T (hcTnT). Nuclei were identified by staining with 4′,6′-diamidinio-2-phenylindole (DAPI) or with DAPI and Nkx2.5 antibodies. (FIG. 1B) Proliferation was evaluated via immunofluorescence costaining for antigen KI 67 (Ki67) and quantified as the percentage of Ki67-positive cells. (FIG. 1C) hiPSC-CMs in the S phase of the cell cycle were identified via immunofluorescence costaining for bromodeoxyuridine (BrdU) incorporation and quantified as the percentage of BrdU-positive cells. (FIG. 1D) hiPSC-CMs in the M phase of the cell cycle were identified via immunofluorescence costaining for histone 3 phosphorylation (PH3) and quantified as the percentage of PH3-positive cells. (FIG. 1E) hiPSC-CMs undergoing cytokinesis were identified via immunofluorescence costaining for Aurora B (AuB) and quantified as the percentage of AuB-positive cells. Scale bar: 20 μm. All experiments were repeated 5 times. […], 1-way ANOVA with Tukey's correction.\nFIGS. 8A-8B show TT-10-NPs promoted proliferation in cultured hiPSC-CMs. hiPSC-CMs were cultured for 48 hours with or without 1 mg/mL coumarin-6-loaded TT-10-NPs (green); then, the cells were immunofluorescently stained for the human isoform of cardiac troponin I (hcTnI, gray), and nuclei were identified via DAPI staining (blue). Internalized NPs are identified with an arrow. Scale bar: 20 μm. (FIG. 8A) Proliferation was evaluated via immunofluorescence costaining for Ki67 and quantified as the percentage of Ki67-positive cells. (FIG. 8B) hiPSC-CMs in the M-phase of the cell cycle were identified via immunofluorescence costaining for PH3 and quantified as the percentage of PH3-positive cells. *P<0.01, Student's t-test; n=5 experiments.\nThe effect of TT-10 (FIG. 1A) on cardiomyocyte cell cycle activity and proliferation was determined by culturing human induced pluripotent stem cell-derived cardiomyocytes (hiPSC-CMs) in varying concentrations of TT-10 (0, 2 μM, 10 μM, 20 μM or 100 μM) for 48 hours and then evaluating the presence of markers for cell proliferation (Ki67 expression, FIG. 1B), S phase (BrdU incorporation, FIG. 1C), and M phase (histone 3 phosphorylation [PH3], FIG. 1D) of the cell cycle and for cytokinesis (Aurora B, FIG. 1E). […]"}, "mouse MI": {"system": "mouse MI", "conditions": "intraperitoneal injections of TT-10, mice after MI; cited from earlier work"}}, "note": "“Also recorded” adds a separate entry of the source.", "data": [{"smiles": "C=CCNc1nc(N)c(C(=O)c2ccc(F)s2)s1", "note": "[TT-10, (2-(allylamino)-4-aminothiazol-5-yl)(5-fluorothiophen-2-yl)methanone]", "values": [{"measurement": "proportion of hiPSC-CMs with Yap-positive nuclei", "setting": "Yap", "value": "significantly increased"}, {"measurement": "cardiomyocyte survival and proliferation", "setting": "cardiomyocytes", "value": "promoted"}, {"measurement": "phosphorylated Yap (p-Yap) abundance (Western blot)", "setting": "YAP signaling pathway", "value": "less abundant"}, {"measurement": "total Yap levels (Western blot)", "setting": "YAP signaling pathway", "value": "similar"}, {"measurement": "hiPSC-CM apoptosis (TUNEL staining)", "setting": "hiPSC-CMs [1]", "value": "significantly reduced"}, {"measurement": "proportion of cells displaying Aurora B (cytokinesis)", "setting": "hiPSC-CMs [2]", "value": "peaked at 10 to 20 μM TT-10"}, {"measurement": "proportion of cells displaying BrdU incorporation (S phase)", "setting": "hiPSC-CMs [2]", "value": "peaked at 10 to 20 μM TT-10"}, {"measurement": "proportion of cells displaying Ki67 (cell proliferation)", "setting": "hiPSC-CMs [2]", "value": "peaked at 10 to 20 μM TT-10"}, {"measurement": "proportion of cells displaying histone 3 phosphorylation PH3 (M phase)", "setting": "hiPSC-CMs [2]", "value": "peaked at 10 to 20 μM TT-10"}, {"measurement": "cardiac function at later time points", "setting": "mouse MI", "value": "did not prevent progressive declines"}, {"measurement": "cardiomyocyte cell cycle activity", "setting": "mouse MI", "value": "promoted"}, {"measurement": "infarct size", "setting": "mouse MI", "value": "declines in infarct size; also recorded: reduced"}, {"measurement": "measures of cardiac function vs delivery vehicle", "setting": "mouse MI", "value": "significantly better"}]}]}
